Like-named read-outs stand apart in the source and are kept apart here.
Assays:
[1] = Single compound bioaccessibility: LC–HRMS intensities after in vitro gastrointestinal digestion vs other extractions; format: in vitro ADME; conditions: whole sample set, Dig vs Org and No_Dig
Procedure: Five grams of each sample underwent in vitro gastrointestinal digestion. The simulated digestion was performed following the three-stage model (oral, gastric, and intestinal phases) proposed by the INFOGEST consortium and described by Minekus et al. [13] with the slight modifications described in [14]. Briefly, during the oral phase (2 min), samples were mixed at 37 °C in a SW-20 water bath (Julabo GmbH, Seelbach, Germany) with an electrolyte solution to simulate salivary fluid and with amylase enzyme. Samples then underwent a gastric phase (2 h) in which they were mixed with simulated gastric fluid and pepsin enzyme. Finally, during the intestinal phase (2 h), samples from the gastric phase were mixed with simulated intestinal fluid, bile salts, and pancreatin. Solutions were adjusted to pH 3 and 7 for the gastric and intestinal phases, respectively, with a MICROpH 2002 pH-meter (CRISON, Carpi, Italy), and the digestion process was stopped by bringing the pH down to 5.4. Samples were then centrifuged at 12,500× g and 0 °C for 10 min in a Heraeus megafuge 11R centrifuge (THERMO electron, Chateau-Gontier (France), and the supernatants were filtered through a 0.45 μm CA syringe filters and immediately stored at −20 °C until further analysis. The digestion process was replicated four times for each sample. Digestion blanks in which the whole sample was replaced with 5 mL of water were also prepared in order to monitor the possible contributions of the enzymes and salts employed during in vitro digestion in the subsequent analytic determinations.
Non-digestion extraction was performed to allow a comparison with the samples digested in vitro. This employed the same temperature and time conditions and the same weight and volume ratios. Samples were extracted at 37 °C for 4 h and 2 min (the whole time for the simulated gastrointestinal digestion) with just Milli-Q water and without enzymes or simulated fluids in order to avoid food matrix degradation due to those components. After this, non-digested samples were centrifuged and filtered in the same way as the digested samples.
Characterization of polyphenols and methylxanthines from all the extract types (Org, Dig, and No_Dig) of the samples was performed with an untargeted metabolomics approach by using a rapid-resolution LC system (RRLC) 1200 series (Agilent Technologies, Waldbronn, Germany), including a binary pump, thermostatized autosampler, column oven, and a DAD detector. The RRLC system was coupled to a 6520 series electrospray ionization (ESI) source with a quadrupole time-of-flight (QTOF) mass spectrometer (Agilent Technologies). Compound separation was performed using an InfinityLab Poroshell 120EC-C18 column (2.1 × 100 mm, particle size of 2.7 μm) with a guard column (2.1 × 5 mm) (Agilent Technologies). […]

Caco-2 cells = conditions: cited from earlier work; for Papp values: in purified extracts, ref Kosińska et al.
in vitro = conditions: human, Caco-2

Structure (SMILES) | concentration (log10-intensity) after gastrointestinal digestion in comparison with the other extraction types [1] | detection on the basolateral side (Caco-2 cell monolayers) | T2 values relative to T1 values (absorption percentage) (Caco-2 cell monolayers) | apparent permeability coefficients (Caco-2 cell monolayers) | apparent permeability (Caco-2 cells) [×10⁻⁶ cm/s] | Papp values (Caco-2 cells) [×10⁻⁶ cm/s] | T2 values relative to T1 values (absorption percentage) (Caco-2 cell monolayers; human) | Papp (in vitro) [×10⁻⁶ cm/s]
Oc1cc(O)c2c(c1)O[C@H](c1ccc(O)c(O)c1)[C@H](O)[C@H]2c1c(O)cc(O)c2c1O[C@H](c1ccc(O)c(O)c1)[C@@H](O)C2 [PCB1, procyanidin B1] | higher | not detected | – | – | – | – | – | –
Cn1c(=O)c2c(ncn2C)n(C)c1=O [caffeine, reference compound] | slightly decreased | – | – | – | – | – | – | –
O.Oc1cc(O)c2c(c1)O[C@H](c1ccc(O)c(O)c1)[C@@H](O)C2 [catechin] | decreased | – | 1.63-1.78 fold | 3.28-30.47 × 10^−6 cm/s | 0.8 | 4.19 | – | –
Oc1cc(O)c2c(c1)O[C@H](c1ccc(O)c(O)c1)[C@H](O)C2 [epicatechin] | decreased | – | – | – | – | 3.38 | 1.56-1.86 fold | 3.28 to 30.5

Reference: PMC7700373, “Polyphenolic and Methylxanthine Bioaccessibility of Cocoa Bean Shell Functional Biscuits: Metabolomics Approach and Intestinal Permeability through Caco-2 Cell Models” (Antioxidants, 2020)
